Data from paper PMC6001238, “Iterative Chemical Engineering of Vancomycin Leads to Novel Vancomycin Analogs With a High in Vitro Therapeutic Index” (Frontiers in Microbiology, 2018).
≈ marks a conversion by molar mass, not a printed value.

Assays:
MRSA KS89 = assay: MIC, broth microdilution, MRSA KS89; assay type: cell-based, Staphylococcus aureus; conditions: for MIC-fold improvement vs. vancomycin: MRSA KS8, ratio of MIC of vancomycin and MIC of analogue; for MIC: Staphylococcus aureus MRSA KS8, read-out: MIC
Method in brief: (§1)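 Susceptibility was scored by broth microdilution (CLSI). In one instance each vancomycin analog or control antibiotic was tested in the presence of vancomycin, 10 μM final, and ultrapure water plus non-inoculated broth were included as controls.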

MRSA KS2 = assay: MIC, broth microdilution, MRSA KS2; assay type: cell-based, Staphylococcus aureus; conditions: for MIC-fold improvement vs. vancomycin: MRSA KS2, ratio of MIC of vancomycin and MIC of analogue; for MIC: Staphylococcus aureus MRSA KS2, read-out: MIC
Method in brief: as §1

MRSA KS6 = assay: MIC, broth microdilution, MRSA KS6; assay type: cell-based, Staphylococcus aureus; conditions: for MIC-fold improvement vs. vancomycin: MRSA KS6, ratio of MIC of vancomycin and MIC of analogue; for MIC: Staphylococcus aureus MRSA KS6, read-out: MIC
Method in brief: as §1

[1] = test system: human cervix carcinoma (HeLa) cells; assay: Cytostatic activity, HeLa cell proliferation; assay type: cell-based; conditions: mean ± SD of three experiments; highest concentration tested 250 µM; 4 days; read-out: Toxicity (IC50) HeLa
Method in brief: (§2)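 Readout: Coulter cell number after drug exposure at 37°C. Durations differ by line (L1210 2 days; CEM 3 days; HeLa 4 days). Stock suspension 300,000–500,000 cells/mL, diluted by mixing with compound. Endpoint: IC50 vs negative control.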

[2] = test system: L1210, CEM and HeLa cell lines; assay: Cytostatic activity, average or summary over L1210, CEM and HeLa; assay type: cell-based; conditions: average of L1210, CEM and HeLa; read-out: Toxicity (IC50) Average
Method in brief: as §2

S. aureus VRSA = assay: MIC, broth microdilution, vancomycin-resistant S. aureus (VRSA); assay type: cell-based, Staphylococcus aureus; conditions: for MIC: Staphylococcus aureus VRSA, read-out: MIC; for MIC-fold improvement vs. vancomycin: VRSA, ratio of MIC of vancomycin and MIC of analogue
Method in brief: as §1

E. faecalis VRE 37 = assay: MIC, broth microdilution, vancomycin-resistant E. faecalis VRE 37 (VanA); assay type: cell-based, Enterococcus faecalis; conditions: for MIC: Enterococcus faecalis VRE 37 (vancomycin-resistant), read-out: MIC; for MIC-fold improvement vs. vancomycin: VRE 37, ratio of MIC of vancomycin and MIC of analogue
Method in brief: as §1

E. faecalis VRE 6 = assay: MIC, broth microdilution, vancomycin-resistant E. faecalis VRE 6 (VanA); assay type: cell-based, Enterococcus faecalis; conditions: for MIC: Enterococcus faecalis VRE 6 (vancomycin-resistant), read-out: MIC; for MIC-fold improvement vs. vancomycin: VRE 6, ratio of MIC of vancomycin and MIC of analogue
Method in brief: as §1

E. faecalis VRE 53 = assay: MIC, broth microdilution, vancomycin-resistant E. faecalis VRE 53 (VanA); assay type: cell-based, Enterococcus faecalis; conditions: for MIC: Enterococcus faecalis VRE 53 (vancomycin-resistant), read-out: MIC; for MIC-fold improvement vs. vancomycin: VRE 53, ratio of MIC of vancomycin and MIC of analogue
Method in brief: as §1

E. faecalis VRE 29 = assay: MIC, broth microdilution, vancomycin-resistant E. faecalis VRE 29 (VanA); assay type: cell-based, Enterococcus faecalis; conditions: for MIC: Enterococcus faecalis VRE 29 (vancomycin-resistant), read-out: MIC; for MIC-fold improvement vs. vancomycin: VRE 29, ratio of MIC of vancomycin and MIC of analogue
Method in brief: as §1

[3] = test system: S. aureus VSSA (ATCC 6538); assay: MIC, broth microdilution, vancomycin-sensitive S. aureus (VSSA/MSSA, ATCC 6538); assay type: cell-based, Staphylococcus aureus; conditions: for MIC: Staphylococcus aureus VSSA, read-out: MIC; for MIC-fold improvement vs. vancomycin: VSSA, ratio of MIC of vancomycin and MIC of analogue
Method in brief: as §1

MRSA KS1 = assay: MIC, broth microdilution, MRSA KS1; assay type: cell-based, Staphylococcus aureus; conditions: for MIC-fold improvement vs. vancomycin: MRSA KS1, ratio of MIC of vancomycin and MIC of analogue; for MIC: Staphylococcus aureus MRSA KS1, read-out: MIC
Method in brief: as §1

[4] = test system: Murine leukemia (L1210) cells; assay: Cytostatic activity, L1210 cell proliferation; assay type: cell-based; conditions: mean ± SD of three experiments; highest concentration tested 250 µM; 2 days; read-out: Toxicity (IC50) L1210
Method in brief: as §2

[5] = test system: human T-lymphocyte (CEM) cells; assay: Cytostatic activity, CEM cell proliferation; assay type: cell-based; conditions: mean ± SD of three experiments; highest concentration tested 250 µM; 3 days; read-out: Toxicity (IC50) CEM
Method in brief: as §2

E. faecalis VSE 1 = assay: MIC, broth microdilution, vancomycin-sensitive E. faecalis (VSE 1); assay type: cell-based, Enterococcus faecalis; conditions: for MIC: Enterococcus faecalis VSE 1 (vancomycin-sensitive), read-out: MIC; for MIC-fold improvement vs. vancomycin: VSE 1, ratio of MIC of vancomycin and MIC of analogue
Method in brief: as §1

S. aureus VISA/HIP5827 = assay: MIC, broth microdilution, vancomycin-intermediate S. aureus VISA HIP5827; assay type: cell-based, Staphylococcus aureus; conditions: for MIC: Staphylococcus aureus VISA/HIP5827, read-out: MIC; for MIC-fold improvement vs. vancomycin: VISA/HIP5827, ratio of MIC of vancomycin and MIC of analogue
Method in brief: as §1

MIC-fold improvement vs. vancomycin (MRSA KS89) | MIC (MRSA KS89) [µM] | MIC-fold improvement vs. vancomycin (MRSA KS2) | MIC (MRSA KS2) [µM] | MIC-fold improvement vs. vancomycin (MRSA KS6) | MIC (MRSA KS6) [µM] | MIC (S. aureus VRSA) [µM] | MIC-fold improvement vs. vancomycin (S. aureus VRSA) | MIC (E. faecalis VRE 37) [µM] | MIC-fold improvement vs. vancomycin (E. faecalis VRE 37) | MIC (E. faecalis VRE 6) [µM] | MIC-fold improvement vs. vancomycin (E. faecalis VRE 6) | MIC (E. faecalis VRE 53) [µM] | MIC-fold improvement vs. vancomycin (E. faecalis VRE 53) | MIC (E. faecalis VRE 29) [µM] | MIC-fold improvement vs. vancomycin (E. faecalis VRE 29) | MIC [3] [µM] | MIC-fold improvement vs. vancomycin [3] | SMILES | IC50 [1] [µM] | IC50 [2] [µM] | also measured
4 | 0.20 (≈ 0.334 µg/mL) | 8 | 0.10 (≈ 0.167 µg/mL) | 4 | 0.20 (≈ 0.334 µg/mL) | 0.78 (≈ 1.3 µg/mL) | 128 | 3.13 (≈ 5.23 µg/mL) | 128 | 1.56 (≈ 2.6 µg/mL) | 128 | 12.5 (≈ 20.9 µg/mL) | 32 | 3.13 (≈ 5.23 µg/mL) | 128 | 0.10 (≈ 0.167 µg/mL) | 8 | CNC(CC(C)C)C(=O)NC1C(=O)NC(CC(N)=O)C(=O)NC2C(=O)NC3C(=O)NC(C(=O)NC(C(=O)NCC(=O)NC4c5ccccc5-c5ccccc54)c4cc(O)cc(O)c4-c4cc3ccc4O)C(O)c3ccc(c(Cl)c3)Oc3cc2cc(c3OC2OC(CO)C(O)C(O)C2OC2CC(C)(N)C(O)C(C)O2)Oc2ccc(cc2Cl)C1O (stereo not drawn) [Vanc-90] | 127 ± 27 | 123 | MIC-fold improvement vs. vancomycin (MRSA KS1): 8; MIC (MRSA KS1): 0.10 µM (≈ 0.167 µg/mL); IC50 [4]: 175 ± 106 µM; IC50 [5]: 68 ± 8 µM; MIC (E. faecalis VSE 1): ≤0.05 µM; MIC-fold improvement vs. vancomycin (E. faecalis VSE 1): ≥32; MIC (S. aureus VISA/HIP5827): 0.39 µM (≈ 0.651 µg/mL); MIC-fold improvement vs. vancomycin (S. aureus VISA/HIP5827): 16
1 | 0.78 (≈ 1.26 µg/mL) | 2 | 0.39 (≈ 0.628 µg/mL) | 1 | 0.78 (≈ 1.26 µg/mL) | 25 (≈ 40.3 µg/mL) | 4 | 50 (≈ 80.6 µg/mL) | 8 | 12.5 (≈ 20.1 µg/mL) | 16 | 25 (≈ 40.3 µg/mL) | 16 | 25 (≈ 40.3 µg/mL) | 16 | 0.78 (≈ 1.26 µg/mL) | 1 | CN[C@H](CC(C)C)C(=O)N[C@H]1C(=O)N[C@@H](CC(N)=O)C(=O)N[C@H]2C(=O)N[C@H]3C(=O)N[C@H](C(=O)N[C@H](C(=O)NCC(=O)Nc4cc(C)ccc4O)c4cc(O)cc(O)c4-c4cc3ccc4O)[C@H](O)c3ccc(c(Cl)c3)Oc3cc2cc(c3O[C@@H]2O[C@H](CO)[C@@H](O)[C@H](O)[C@H]2O[C@H]2C[C@](C)(N)[C@H](O)[C@H](C)O2)Oc2ccc(cc2Cl)[C@H]1O [Vanc-18] | > 250 | > 250 | MIC-fold improvement vs. vancomycin (MRSA KS1): 1; MIC (MRSA KS1): 0.78 µM (≈ 1.26 µg/mL); IC50 [4]: > 250 µM; IC50 [5]: > 250 µM; MIC (E. faecalis VSE 1): 1.56 µM (≈ 2.51 µg/mL); MIC-fold improvement vs. vancomycin (E. faecalis VSE 1): 1; MIC (S. aureus VISA/HIP5827): 0.78 µM (≈ 1.26 µg/mL); MIC-fold improvement vs. vancomycin (S. aureus VISA/HIP5827): 8
4 | 0.20 (≈ 0.33 µg/mL) | 4 | 0.20 (≈ 0.33 µg/mL) | 4 | 0.20 (≈ 0.33 µg/mL) | 1.56 (≈ 2.58 µg/mL) | 64 | 6.25 (≈ 10.3 µg/mL) | 64 | 1.56 (≈ 2.58 µg/mL) | 128 | 6.25 (≈ 10.3 µg/mL) | 64 | 12.5 (≈ 20.6 µg/mL) | 32 | 0.39 (≈ 0.644 µg/mL) | 2 | CCCCCc1ccc(NC(=O)CNC(=O)[C@H]2NC(=O)[C@H]3NC(=O)[C@H](NC(=O)[C@@H]4NC(=O)[C@H](CC(N)=O)NC(=O)[C@H](NC(=O)[C@@H](CC(C)C)NC)[C@H](O)c5ccc(c(Cl)c5)Oc5cc4cc(c5O[C@@H]4O[C@H](CO)[C@@H](O)[C@H](O)[C@H]4O[C@H]4C[C@](C)(N)[C@H](O)[C@H](C)O4)Oc4ccc(cc4Cl)[C@H]3O)c3ccc(O)c(c3)-c3c(O)cc(O)cc32)cc1 [Vanc-74] | 102 ± 46 | 143 | MIC-fold improvement vs. vancomycin (MRSA KS1): 1; MIC (MRSA KS1): 0.78 µM (≈ 1.29 µg/mL); IC50 [4]: ≥ 250 µM; IC50 [5]: 78 ± 20 µM; MIC (E. faecalis VSE 1): 0.39 µM (≈ 0.644 µg/mL); MIC-fold improvement vs. vancomycin (E. faecalis VSE 1): 4; MIC (S. aureus VISA/HIP5827): 0.78 µM (≈ 1.29 µg/mL); MIC-fold improvement vs. vancomycin (S. aureus VISA/HIP5827): 8
